# Assay results reported in patent US20020120098A1, “Enhanced stimulation of erythropoiesis” (priority 1996, published 2002).
# Key:
# Assay type in all cases: cell-based, human
# [1] = tested on: CFU-GM; assay: Colony formation assay (CFA), cord blood LDMNC: CFU-GM colonies; conditions: 2 U/ml Epo; for effect on CFU-GM numbers (in words): ambient O2; for CFU-GM progenitor number, fold increase: ambient O2, vs vehicle control
# Procedure: This technique, referred to as the colony formation assay (CFA), is the most widely used biological assay to identify and enumerate erythroid progenitors present in hematopoietic tissue such as blood and bone marrow. Cell populations containing erythroid progenitors are plated in semi-solid suspensions of methyl cellulose, agar, low melting agarose or related substances in nutrient culture medium containing 1-3 U/ml Epo and 10 ng/ml IL-3 to specifically stimulate erythroid progenitors. Plates are incubated at 37° C. for 14 days during which time the erythroid progenitors form characteristic hemoglobinized (red) colonies. Two distinct but related erythroid progenitors can be distinguished based on colony size and morphology: BFU-E, the most primitive recognizable erythroid progenitor forms large multilobular colonies whereas the more mature CFU-E forms smaller spherical colonies.
# Adult hemoglobin was purified according to U.S Pat. Nos. 5,439,591 and 5,545,328 to obtain HAo and HEMOLINK™ was prepared from HAo according to U.S. Pat. No. 5,532,352. Human umbilical cord blood intended for discard was collected from the umbilical vein of placentas immediately postpartum into 10 ml vacutainer tubes containing 143 USP units/ml sodium heparin. Low density mononuclear cells were separated from red blood cells by centrifugation over a 1.077 g/ml density gradient Cells removed from the plasma/density gradient interface were incubated overnight in a tissue culture flask with 10 ml cell culture medium containing 10% fetal bovine serum, and non-adherent LDMNC were further purified with an additional density gradient step. The LDMNC were then plated into colony formation assays (CFA) on the second day of isolation. In the CFA, LDMNC were plated at a density of 1×10^5 cells/ml in Iscoves modified Dulbeccos cell culture medium containing 0.8% methyl-cellulose, 30% fetal bovine serum, 1% bovine serum albumin, 0.1 mM 2-mercaptoethanol and 2 mM L-glutamine. Unless indicated otherwise, under standard CFA conditions 2 U/ml Epo and 10 ng/ml IL-3 are added to the formulation to stimulate hematopoietic progenitor growth, specifically BFU-E, CFU-E and CFU-GM.
# Each condition was tested in duplicate in from 2-18 independent experiments. Cultures were maintained in a humidified incubator at 37° C., 5% CO2 and ambient oxygen tensions. The number of hematopoietic progenitors was scored between days 13-15 by counting the number and types of colonies present.
# The effect of the various additives on the inhibitory effect of succinylacetone (SA), a heme synthesis inhibitor, on erythroid progenitors was determined. Primary LDMNC were cultured in methyl cellulose as described in Example 1. Cord blood LDMN were plated in the presence of 1.0 mg/ml HAo (15.6 μM; n=12) or HEMOLINK™ (15.6 μM; n=5), 100 μM hemin (n=12), 250 μM FeCl3 (n=11) or no addition (n=12), in absence or presence of 0.5 mM SA. Cultures were maintained in a humidified chamber at 37° C., 5% CO2, and ambient oxygen tensions for 14 days.
# HEMOLINK™ was evaluated for its ability to protect erythroid progenitor cells from toxicity due to ganciclovir. Cord blood LDMNC were set up in CFAs in the presence and absence of 1 mg/ml HEMOLINK™ plus 0, 0.1, 1.0, 10, 50 or 100 μM ganciclovir. Conditions for the CFA were similar to those described in Examples 1-4. […] All data are expressed relative to the number of colonies of control plates without HEMOLINK™. The hematopoietic progenitors display different sensitivities to ganciclovir. CFU-E were unaffected by 1 μM ganciclovir. However, a similar inhibition of BFU-E occurs at a 50-fold lower dose of ganciclovir (1 μM). […] Due to the difficulty in scoring CFU-GM in the presence of hemoglobin precipitates, as previously noted, they could not be accurately measured under these conditions. Thus, HEMOLINK™ reduces toxicity of ganciclovir to erythroid progenitors with the most pronounced effect on BFU-E cells.
# [2] = tested on: erythroid colonies; assay: Hemoglobin production by erythroid colonies, anion exchange HPLC; conditions: 5% O2, 2 U/ml Epo; for adult Hb / fetal Hb / total Hb: 100 μM hemin, 1.0 mg/ml HAo or HEMOLINK, 250 μM FeCl3; for adult Hb per cell / fetal Hb per cell / total Hb per cell: estimated assuming 30,000 cells/BFU-E and 100 cells/CFU-E
# Procedure: Hemoglobin synthesis in erythroid colonies was analyzed by anion exchange high performance liquid chromatography (HPLC). Colonies were harvested from CFA plates and cell lysates were prepared after the progenitor colonies had been enumerated. Colonies were isolated from methyl cellulose by several washes in PBS. The cells were pelleted and lysed in 50 mM Tris, pH 8.8 and the cell debris removed by pelleting the cell lysate. The lysate supernatants were filtered through a 0.2 ,μm filter prior to loading onto a POROS® HQ/H anion exchange HPLC column (PerSeptive Biosystems). The hemoglobin was eluted with an increasing NaCl gradient and the optical density (O.D.) monitored at a wavelength of 414 nm The amount of hemoglobin present in the lysates was quantitated by comparison with standard hemoglobin solutions of adult (HbA) and fetal hemoglobin (HbF).
# Representative HPLC profiles for hemoglobin produced by erythroid colonies that formed at 5% O2 in the presence of 2 U/ml Epo with no addition (vehicle only), 100 μM hemin, 1.0 mg/ml HAo (15.6 μM) HAo, 1.0 mg/ml HEMOLINK™ (15.6 μM), or 250 μM FeCl3 are shown in FIG. 7.
# [3] = tested on: BFU-E; assay: Colony formation assay, CD34+/CD38- and CD34+/CD33- enriched cord blood cells: BFU-E; conditions: 2 U/ml Epo, 5% O2, 14 days; vs untreated controls under same conditions
# From the text: CD34^+/CD38^− cells were isolated from cord blood LDMNC using the STEMSEP™ system (StemCell Technologies Inc., Vancouver, Canada). The CD34^+/CD38^− cell purity was increased from <0.1% in unfractionated LDMNC to ˜81% CD34^+/CD38^− cells post fractionation as determined by flow cytometry. To obtain the CD34^+/CD33^− cells CD34^+ cells were first isolated from cord blood LDMNC using the CEPRATE™ LC system (CellPro Inc., Bothell, Wash.). The CD34^+/CD33^− fraction was then enriched to ˜94% purity by flow fluorescence activated cell sorting (FACS; Epics Elite, Coulter Electronics, Hialeah, Fla.). The colony formation assay was conducted as described in Examples 1-4, except that 1×10^3 CD34^+ cells/ml were plated versus 1×10^3 unfractionated cord blood LDMNC/ml normally plated. Mean fold increase in BFU-E and CFU-E progenitor number produced from CD34^+ CD38^− enriched (a; n=2) and CD34^+ CD33^− enriched (b; n=1) cord blood LDMNC stimulated by 1.0 mg/ml HAo (15.6 μM) or HEMOLINK™ (15.6 μM), 100 μM hemin 250 μM FeCl3 in the presence of 2 U/ml Epo is shown in FIG. 13. Cultures were maintained at 5% O2 for 14 days. The results are expressed relative cells treated only with the respective vehicles and cultured under the same conditions.
# [4] = dose 1000 μg/ml, underestimated due to hemoglobin precipitates
Compound,effect on CFU-GM numbers (in words) [1],"CFU-GM progenitor number, fold increase ([1]; dose 1.0 μM)","CFU-GM progenitor number, fold increase ([1]; dose 10 μM)","CFU-GM progenitor number, fold increase ([1]; dose 100 μM)","CFU-GM progenitor number, fold increase ([1]; dose 250 μM)",adult Hb [2],fetal Hb [2],total Hb [2],adult Hb per cell [2],fetal Hb per cell [2],total Hb per cell [2],increase in BFU-E from CD34+ enriched progenitor populations (in words) [3],"CFU-GM progenitor number, fold increase ([1]; dose 10 μg/ml)","CFU-GM progenitor number, fold increase ([1]; dose 100 μg/ml)","CFU-GM progenitor number, fold increase ([1]; dose 500 μg/ml)","CFU-GM progenitor number, fold increase [1, 4]","CFU-GM progenitor number, fold increase ([1]; dose 64 μM)"
[Cl][Fe]([Cl])[Cl] [FeCl3],unaffected,1.2 fold,1.0 fold,0.8 fold,1.3 fold,5.0 µg,9.5 µg,14.5 µg,0.14 pg/cell,0.26 pg/cell,0.40 pg/cell,to a lesser extent,–,–,–,–,–
HAo: adult human hemoglobin obtained from red blood cells and purified by displacement chromatography; uncross linked product,does not stimulate CFU-GM,–,–,–,–,22.6 µg,33.1 µg,55.7 µg,0.37 pg/cell,0.54 pg/cell,0.91 pg/cell,stimulated an increase in BFU-E,1.4 fold,1.5 fold,1.2 fold,**0.5 fold,–
C=CC1=C(C)C2=Cc3c(C=C)c(C)c4[n]3[Fe-2]35([Cl])[n]6c(c(C)c(CCC(=O)O)c6=CC6=[N+]3C(=C4)C(C)=C6CCC(=O)O)=CC1=[N+]25 [hemin],unaffected,1.5 fold,1.4 fold,1.0 fold,1.4 fold,8.7 µg,19.4 µg,28.1 µg,0.14 pg/cell,0.32 pg/cell,0.46 pg/cell,stimulated an increase in BFU-E,–,–,–,–,1.2 fold
HEMOLINK™: chemically crosslinked hemoglobin prepared by treating human hemoglobin with a polyaldehyde (O-raffinose),–,–,–,–,–,20.5 µg,28.0 µg,48.5 µg,0.38 pg/cell,0.51 pg/cell,0.89 pg/cell,stimulated an increase in BFU-E,–,–,–,*0.6 fold,–
